Consider one molecule from patent publication US7307101B2, “Use of 20-HETE synthesizing enzyme inhibitors as therapy for cerebral vascular disease” (MCW Research Foundation, Inc., priority 2000, dated 2007).

Each structure is given as a SMILES string.

Series [1] concerns rats with SAH. Description: Effect on rCBF when given after SAH has been established. It counts as in vivo, rat. The following applies: 1 mg/kg i.v. 30 min after induction of SAH. On the procedure:
(§1) Animals. Experiments were performed on male Sprague-Dawley rats (9-12 weeks old), purchased from Harlan Sprague-Dawley, Inc. (Indianapolis, Ind.). The rats were housed in an Animal Care Facility at the Medical College of Wisconsin, which is approved by the American Association for the Accreditation of Laboratory Animal Care. All protocols involving animals received approval by the Animal Care Committee of the Medical College of Wisconsin.
Surgical preparation. Rats were anesthetized with ketamine (Ketaject® 20 mg/kg i.m.) and thiobutabarbital sodium (Inactin® 50 mg/kg i.p.). […] Endtidal partial pressure of carbon dioxide (pCO2) was controlled at 38 mmHg by adjusting the minute ventilation according to the reading of an CO2 analyzer (Capstar-100 IITC, Inc., Woodland Hills, Calif.). Blood samples were collected at the beginning and end of the experiment and analyzed using a blood gas analyzer (ABL 300, Radiometer, Copenhagen, Denmark) to validate the endtidal pCO2 readings. […]
(§2) Cerebral blood flow (CBF) was continuously measured using laser Doppler flowmetry through a thinned cranial window. […] A PF 103 laser Doppler flow (LDF) probe was positioned over the cranial window and CBF was monitored using a PF-3 laser Doppler flowmeter (Perimed, Stockholm, Sweden).
0.3 ml of blood was injected into the Cistema Magna of rats to induce SAH. […] The CBF data are expressed as percentage change from control.

Series [2] can be described thus: HET0016 levels in plasma and brain. It counts as in vivo. Particulars: rat; for concentration at 1 h: iv. Here is the method: Measurement of HET0016 levels in plasma and brain. […] After a one hour equilibration period, the rats were anesthesized with pentobarbital and a blood sample was collected from the jugular vein. The rats were then sacrificed and the brain was removed, weighed and homogenized in 3 volumes of 0.9% NaCl solution using a Physcotron homogenizer (Nition-Ikakikai, Chiba, Japan). […] The samples were mixed with 1 ml of acetonitrile, centrifuged and 20 μl of the clear supernatant was injected into the LC/MS. The samples were separated on a 200×4.6 mm Capcellpak UG 120 ODS column (Shiseido Corp., Tokyo, Japan) and eluted with acetonitrile:water (72/28). Peaks were monitored using a Sciex API 3000 mass spectrometer (Perkin Elmer Sciex, Ontario, Canada) tuned to detect the precursor to product transitions specific for each analyte.

Series [3] has as its system rats with SAH. The series is described as follows: Effect on rCBF after SAH, drug given before SAH. It counts as in vivo, rat. Particulars: rats pretreated before SAH, 17-ODYA 1.5 nmol intrathecally. Here is the method:
as §1
Surgical preparation. Rats were anesthetized with ketamine (Ketaject® 20 mg/kg i.m.) and thiobutabarbital sodium (Inactin® 50 mg/kg i.p.). A cannula was placed in the trachea and the rats were artificially ventilated using a small animal ventilator (SAR-830, CWE, Inc., Ardmore, Pa.) with a mixture of 30% O2 in N2. The femoral vein was cannulated for the infusion of drug and the rats received an i.v. infusion of 0.9% NaCl solution at a rate of […] to replace fluid losses. The femoral artery was cannulated for measurement of mean arterial pressure (MAP) and arterial blood gases. Endtidal partial pressure of carbon dioxide (pCO2) was controlled at 38 mmHg by adjusting the minute ventilation according to the reading of an CO2 analyzer (Capstar-100 IITC, Inc., Woodland Hills, Calif.). Blood samples were collected at the beginning and end of the experiment and analyzed using a blood gas analyzer (ABL 300, Radiometer, Copenhagen, Denmark) to validate the endtidal pCO2 readings. Anesthesia was maintained by administering additional amounts of thiobutabarbital (8 mg/kg i.v.) as needed. Rectal body temperature was maintained at 37±1° C.
Induction of SAH and measurement of cerebral blood flow. SAH was induced by injection of 0.3 ml autologous arterial blood into the Cisterna Magna using a modification of a posterior cranio-cervical approach of a model of SAH. Delgado T J et al., Stroke 16: 595-602 (1985); Solomon R A et al., Stroke 16: 58-64 (1985). The head of the rat was placed in a stereotactic head holder and the atlanto-occipital membrane was exposed by bluntly separating the overlying neck muscles in the midline. The occipital bone and the atlas were visualized. A 30 gauge needle attached to PE-10 was inserted using a stereomicroscope into the Cistema Magna by penetrating the atlanto-occipital membrane. Then, 0.3 ml of freshly drawn unheparinized arterial blood was injected into the Cistema Magna at a rate of 35 μl/min using a syringe pump. This created a massive SAH that was confirmed in all rats at autopsy. Blood was found overlying the cerebello-medullary junction posteriorly and around the basal artery and the vessels of the Circle of Willis.
as §2
Other animals received 17-ODYA (1.5 nmol) or vehicle in a volume of 50 μl that was injected directly into the Cistema Magna using a micromanipulator and a 30 gauge needle. The CBF recorded over the last 5 minutes of the control period immediately before initiation of SAH served as the control value. […] CBF was recorded for 2 min intervals at 10, 20, 30, 60, 90 and 120 minutes after completion of the injection of the blood. The CBF data are expressed as percentage change from control.

With `CCCCc1ccc(N=CNO)c(C)c1` [HET0016, N-hydroxy-N′-(4-butyl-2-methylphenyl)-formamidine], the “time after treatment at which cerebral blood flow was back to the control value” in the series on rats with SAH [1] came to 70 min. In addition, the concentration at 1 h in series [2] (brain, 1 hr after i.v. 10 mg/kg) was determined as 7.2 µM; in series [2] (brain, 1 hr after i.v. 10 mg/kg, n=3), 1490 ng/g; in series [2] (plasma, 1 hr after i.v. 10 mg/kg, n=3), 570 ± 90 ng/mL; in series [2] (plasma, one hour after i.v. 10 mg/kg body weight) it was 2.8 µM. The same molecule came in with an HET0016 level in plasma (molar) in series [2] (1 hr after i.v. 10 mg/kg) of 2.8 µM. For the same molecule, in the series on rats with SAH [3] (HET0016 10 mg/kg i.v. 30 min prior), the “reduction of the initial fall in rCBF at 10 min” value is given as “about 40%”. Further, the “time after induction of SAH within which rCBF recovered fully to values not different from control” value in the series with rats with SAH [3] (HET0016 10 mg/kg i.v.) is not above 60 min.
